In patent US20180008573A1, “METHODS AND COMPOSITIONS FOR REDUCING DAMAGE ASSOCIATED WITH OXIDATIVE PHOSPHORYLATION” (USANA Health Sciences, Inc., priority 2016, published 2018):
Marks after values point to notes of the source that are not given here. Each block holds one molecule with its values, some of them ahead of it.

Columns and labels:
human PPARγ = target: T1, human PPARγ (Homo sapiens, UniProt P37231); experiment: PPARγ agonist reporter assay (Gal4 hybrid receptor, luciferase, CHO cells); format: cell-based
T1 construct: expressed in transfected cells; host or cells: CHO
T1 sequence (P37231 238-503 limits assumed): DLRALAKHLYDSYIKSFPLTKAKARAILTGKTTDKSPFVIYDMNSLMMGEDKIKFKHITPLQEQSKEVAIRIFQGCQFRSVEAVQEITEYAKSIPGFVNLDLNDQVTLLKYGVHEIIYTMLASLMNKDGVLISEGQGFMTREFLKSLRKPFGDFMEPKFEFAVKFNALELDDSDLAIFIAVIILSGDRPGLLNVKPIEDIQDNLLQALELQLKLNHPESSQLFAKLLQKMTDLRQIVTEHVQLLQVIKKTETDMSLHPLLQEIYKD

human PPARδ = target: T2, human PPARδ (Homo sapiens, UniProt Q03181); experiment: PPARδ agonist reporter assay (Gal4 hybrid receptor, luciferase, CHO cells); format: cell-based
T2 construct: expressed in transfected cells; host or cells: CHO
T2 sequence (Q03181 211-439 limits assumed): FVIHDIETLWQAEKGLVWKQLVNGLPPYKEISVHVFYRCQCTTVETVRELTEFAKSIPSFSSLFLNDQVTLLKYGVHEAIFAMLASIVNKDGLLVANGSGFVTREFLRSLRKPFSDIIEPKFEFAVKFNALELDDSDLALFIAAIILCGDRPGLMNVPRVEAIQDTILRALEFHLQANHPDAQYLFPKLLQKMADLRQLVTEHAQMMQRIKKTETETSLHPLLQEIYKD

NF-κB reporter cells = experiment: Live cell multiplex assay in the NF-κB antagonist assay; format: cell-based, human
Experimental: A vehicle control was prepared.

human PPARα = target: T3, human PPARα (Homo sapiens, UniProt Q07869); experiment: PPARα agonist reporter assay (Gal4 hybrid receptor, luciferase, CHO cells); format: cell-based
T3 construct: expressed in transfected cells; host or cells: CHO
T3 sequence (Q07869 239-466 limits assumed): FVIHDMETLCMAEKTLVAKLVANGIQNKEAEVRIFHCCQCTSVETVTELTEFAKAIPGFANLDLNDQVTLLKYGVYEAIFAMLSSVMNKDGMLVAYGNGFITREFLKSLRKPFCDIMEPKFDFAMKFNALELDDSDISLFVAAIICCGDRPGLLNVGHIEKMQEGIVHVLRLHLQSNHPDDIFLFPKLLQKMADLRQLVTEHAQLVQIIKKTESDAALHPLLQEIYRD

human NF-κB = experiment: NF-κB antagonist reporter assay (NF-κB GRE-luciferase, HEK293 cells); format: cell-based;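 note: reporter cells carry native NF-κB receptor with firefly luciferase under upstream response elements, with a vehicle control included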
Nrf2 = target: T4, Nrf2 (Homo sapiens, UniProt Q16236); experiment: Nrf2 agonist reporter assay (native receptor, ARE-luciferase, CV1 cells); format: cell-based; set-up: comprising either the native receptor (Nrf2 and NF-κB); expressed in transfected cells; host or cells: CV1
T4 sequence (Q16236 1-605): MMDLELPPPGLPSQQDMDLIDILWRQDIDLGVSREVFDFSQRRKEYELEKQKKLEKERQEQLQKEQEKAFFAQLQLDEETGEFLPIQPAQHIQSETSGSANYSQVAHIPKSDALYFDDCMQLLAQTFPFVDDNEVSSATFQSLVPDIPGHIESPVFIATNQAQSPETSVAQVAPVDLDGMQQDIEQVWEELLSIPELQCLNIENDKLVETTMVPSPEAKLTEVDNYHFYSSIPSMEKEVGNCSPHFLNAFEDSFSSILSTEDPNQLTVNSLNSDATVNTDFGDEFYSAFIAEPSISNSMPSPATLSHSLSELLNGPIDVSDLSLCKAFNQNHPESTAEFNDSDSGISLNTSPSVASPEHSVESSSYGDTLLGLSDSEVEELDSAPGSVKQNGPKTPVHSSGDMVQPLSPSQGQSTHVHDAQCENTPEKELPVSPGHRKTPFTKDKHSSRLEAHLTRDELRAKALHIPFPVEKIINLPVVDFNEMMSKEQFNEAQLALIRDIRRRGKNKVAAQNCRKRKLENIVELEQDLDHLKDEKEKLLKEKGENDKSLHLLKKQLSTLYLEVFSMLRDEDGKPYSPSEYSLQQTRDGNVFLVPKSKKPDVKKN

PPARγ Fold-Activation (human PPARγ; 0.007 μg/ml active ingredient): 1.0 fold
PPARγ Fold-Activation (human PPARγ; 0.022 μg/ml active ingredient): 1.0 fold
PPARγ Fold-Activation (human PPARγ; 0.067 μg/ml active ingredient): 0.95 fold
PPARγ Fold-Activation (human PPARγ; 0.20 μg/ml active ingredient): 0.96 fold
PPARγ Fold-Activation (human PPARγ; 0.60 μg/ml active ingredient): 0.90 fold
PPARγ Fold-Activation (human PPARγ; 1.81 μg/ml active ingredient): 1.1 fold
PPARδ Fold-Activation (human PPARδ; 0.007 μg/ml active ingredient): 1.2 fold
PPARδ Fold-Activation (human PPARδ; 0.022 μg/ml active ingredient): 1.2 fold
PPARδ Fold-Activation (human PPARδ; 0.067 μg/ml active ingredient): 1.0 fold
PPARδ Fold-Activation (human PPARδ; 0.20 μg/ml active ingredient): 1.2 fold
PPARδ Fold-Activation (human PPARδ; 0.60 μg/ml active ingredient): 1.3 fold
PPARδ Fold-Activation (human PPARδ; 1.81 μg/ml active ingredient): 1.0 fold
PPARα Fold-Activation (human PPARα; 0.007 μg/ml active ingredient): 1.3 fold
PPARα Fold-Activation (human PPARα; 0.022 μg/ml active ingredient): 1.3 fold
PPARα Fold-Activation (human PPARα; 0.067 μg/ml active ingredient): 1.3 fold
PPARα Fold-Activation (human PPARα; 0.20 μg/ml active ingredient): 1.1 fold
PPARα Fold-Activation (human PPARα; 0.60 μg/ml active ingredient): 1.0 fold
PPARα Fold-Activation (human PPARα; 1.81 μg/ml active ingredient): 0.86 fold
Nrf2 Fold-Activation (Nrf2; 0.007 μg/ml active ingredient): 1.6 fold
Nrf2 Fold-Activation (Nrf2; 0.022 μg/ml active ingredient): 1.7 fold
Nrf2 Fold-Activation (Nrf2; 0.067 μg/ml active ingredient): 1.4 fold
Nrf2 Fold-Activation (Nrf2; 0.20 μg/ml active ingredient): 0.96 fold
Nrf2 Fold-Activation (Nrf2; 0.60 μg/ml active ingredient): 1.0 fold
Nrf2 Fold-Activation (Nrf2; 1.81 μg/ml active ingredient): 1.6 fold
Compound: COc1cc(/C=C/C(=O)CC(=O)/C=C/c2ccc(O)c(OC)c2)ccc1O [Curcumin, curcumin]
NF-κB % Live Cell (NF-κB reporter cells; 0.007 μg/ml active ingredient): 105%
NF-κB % Live Cell (NF-κB reporter cells; 0.022 μg/ml active ingredient): 105%
NF-κB % Live Cell (NF-κB reporter cells; 0.067 μg/ml active ingredient): 106%
NF-κB % Live Cell (NF-κB reporter cells; 0.20 μg/ml active ingredient): 105%
NF-κB % Live Cell (NF-κB reporter cells; 0.60 μg/ml active ingredient): 99%
NF-κB % Live Cell (NF-κB reporter cells; 1.81 μg/ml active ingredient): 97%
NF-κB % Inhibition (human NF-κB; 0.007 μg/ml active ingredient): −10%
NF-κB % Inhibition (human NF-κB; 0.022 μg/ml active ingredient): −3.4%
NF-κB % Inhibition (human NF-κB; 0.067 μg/ml active ingredient): −0.29%
NF-κB % Inhibition (human NF-κB; 0.20 μg/ml active ingredient): 22%
NF-κB % Inhibition (human NF-κB; 0.60 μg/ml active ingredient): 30%
NF-κB % Inhibition (human NF-κB; 1.81 μg/ml active ingredient): 51** %
antagonist activity against human NF-κB (human NF-κB; at the concentrations tested): very low-level antagonist activity

Compound: O=C(O[C@@H]1Cc2c(O)cc(O)cc2O[C@@H]1c1cc(O)c(O)c(O)c1)c1cc(O)c(O)c(O)c1 [EGCG, epigallocatechin gallate]
NF-κB % Live Cell (NF-κB reporter cells; 0.033 μg/ml active ingredient): 102%
NF-κB % Live Cell (NF-κB reporter cells; 0.098 μg/ml active ingredient): 101%
NF-κB % Live Cell (NF-κB reporter cells; 0.30 μg/ml active ingredient): 105%
NF-κB % Live Cell (NF-κB reporter cells; 0.89 μg/ml active ingredient): 104%
NF-κB % Live Cell (NF-κB reporter cells; 2.67 μg/ml active ingredient): 106%
NF-κB % Live Cell (NF-κB reporter cells; 8 μg/ml active ingredient): 107%
NF-κB % Inhibition (human NF-κB; 0.033 μg/ml active ingredient): 10%
NF-κB % Inhibition (human NF-κB; 0.098 μg/ml active ingredient): 18%
NF-κB % Inhibition (human NF-κB; 0.30 μg/ml active ingredient): 0.10%
NF-κB % Inhibition (human NF-κB; 0.89 μg/ml active ingredient): 8.4%
NF-κB % Inhibition (human NF-κB; 2.67 μg/ml active ingredient): −15%
NF-κB % Inhibition (human NF-κB; 8 μg/ml active ingredient): −29%
